Assay results published in patent publication US7138361B2, “Herbicidal heterocycles” (E. I. du Pont de Nemours and Company, priority 2000, dated 2006).

Columns and labels:
Type in all cases: in vivo
Nightshade = assay: Test C preemergence; settings: Rate 250 g/ha, visual evaluation after 12 to 14 days
[1] = test system: barnyardgrass (Echinochloa crus-galli); assay: Test B flooded paddy test; settings: Rate 1000 g/ha, scale of 0 to 100 where 0 is no effect and 100 is complete control, visually evaluated after 13 to 15 days
Outline: (§1)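 Plants were grown to the 2-leaf stage in flooded paddy conditions before treatment with the formulated test chemicals. After 13 to 15 days in a greenhouse, each species was visually compared with untreated controls and rated from 0 (no effect) to 100 (complete control).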

rice (Oryza saliva) [2] = assay: Test B flooded paddy test; settings: Rate 1000 g/ha, scale of 0 to 100 where 0 is no effect and 100 is complete control, visually evaluated after 13 to 15 days
Outline: as §1

[3] = test system: duck salad (Heteranthera limosa); assay: Test B flooded paddy test; settings: Rate 1000 g/ha, scale of 0 to 100 where 0 is no effect and 100 is complete control, visually evaluated after 13 to 15 days
Outline: as §1

[4] = test system: smallflower flatsedge (Cyperus difformis); assay: Test B flooded paddy test; settings: Rate 1000 g/ha, scale of 0 to 100 where 0 is no effect and 100 is complete control, visually evaluated after 13 to 15 days
Outline: as §1

[5] = test system: barnyardgrass (Echinochloa crus-galli); assay: Test A postemergence, sprayed to runoff; settings: approx. eleven days
Outline: (§2)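 Visual injury rating on a 0–10 scale (10 = complete control) versus untreated controls after approximately eleven days in greenhouse. Compounds formulated in surfactant-containing non-phytotoxic solvent; preemergence by soil drench into sandy loam, postemergence by spray to runoff at one- to two-leaf stage.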

[6] = test system: crabgrass (Digitaria spp.); assay: Test A postemergence, sprayed to runoff; settings: approx. eleven days
Outline: as §2

[7] = test system: redroot pigweed (Amaranthus retroflexus); assay: Test A postemergence, sprayed to runoff; settings: approx. eleven days
Outline: as §2

[8] = test system: giant foxtail (Setaria viridis); assay: Test A postemergence, sprayed to runoff; settings: approx. eleven days
Outline: as §2

Sunflower [9] = assay: Test C preemergence; settings: Rate 125 g/ha, scale 0 to 100, 0 no effect, 100 complete control
[10] = test system: velvetleaf (Abutilon theophrasti); assay: Test A postemergence, sprayed to runoff; set-up: scale not given here; settings: approx. eleven days
Outline: as §2

[11] = test system: morning glory (Ipomoea spp.); assay: Test A postemergence, sprayed to runoff; set-up: scale not given here; settings: Morningglory, approx. eleven days
Outline: as §2

Sunflower [12] = assay: Test C preemergence; settings: Rate 31 g/ha, scale 0 to 100
[13] = test system: barnyardgrass (Echinochloa crus-galli); assay: Test C flooded paddy test; settings: for Barnyardgrass plant response rating: scale 0 to 100, 0 no effect, 100 complete control
Outline: (§3)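 Visual injury score, 0 (no effect) to 100 (complete control), relative to controls. Paddy plants treated at 2-leaf stage; greenhouse hold 12–14 d before rating.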

rice (Oryza saliva) [14] = assay: Test C flooded paddy test; settings: for Rice plant response rating: scale 0 to 100, 0 no effect, 100 complete control
Outline: as §3

[15] = test system: duck salad (Heteranthera limosa); assay: Test C flooded paddy test; settings: for Ducksalad plant response rating: scale 0 to 100, 0 no effect, 100 complete control
Outline: as §3

[16] = test system: smallflower flatsedge (Cyperus difformis); assay: Test C flooded paddy test; settings: for Flatsedge plant response rating: Flooded Paddy, scale 0 to 100, 0 no effect, 100 complete control; for Plant response rating, Flatsedge: scale 0 to 100 (0 no effect, 100 complete control)
Outline: as §3

[17] = flooded paddy test, Rate 62 g/ha, scale 0 to 100 (0 no effect, 100 complete control)
[18] = flooded paddy test, Rate 125 g/ha, scale 0 to 100 (0 no effect, 100 complete control)
[19] = flooded paddy test, Rate 62 g/ha
[20] = flooded paddy test, Rate 125 g/ha
[21] = Flooded Paddy, Rate 500 g/ha, scale 0 to 100
[22] = flooded paddy test, Rate 16 g/ha, visually evaluated after 12 to 14 days, 0 = no effect, 100 = complete control

Row | Structure (SMILES) | Plant response rating, Barnyardgrass [1] | Plant response rating, Rice (rice (Oryza saliva) [2]) | Plant response rating, Ducksalad [3] | Plant response rating, Flatsedge [4] | Plant response rating (visual injury vs untreated controls) ([5]; Rate 500 g/ha) | Plant response rating (visual injury vs untreated controls) ([5]; Rate 2000 g/ha) | Plant response rating (visual injury vs untreated controls) ([6]; Rate 500 g/ha) | Plant response rating (visual injury vs untreated controls) ([6]; Rate 2000 g/ha) | Plant response rating (visual injury vs untreated controls) ([7]; Rate 500 g/ha) | Plant response rating (visual injury vs untreated controls) ([7]; Rate 2000 g/ha) | Plant response rating (visual injury vs untreated controls) ([8]; Rate 500 g/ha) | Plant response rating (visual injury vs untreated controls) ([8]; Rate 2000 g/ha) | Plant response rating (visual injury vs untreated controls) ([10]; Rate 500 g/ha) | Plant response rating (visual injury vs untreated controls) ([10]; Rate 2000 g/ha) | Plant response rating (visual injury vs untreated controls) ([11]; Rate 500 g/ha) | Plant response rating (visual injury vs untreated controls) ([11]; Rate 2000 g/ha) | Barnyardgrass plant response rating ([13]; Flooded Paddy, Rate 250 g/ha) | Plant response rating, Barnyardgrass [13, 17] | Plant response rating, Barnyardgrass [13, 18] | Rice plant response rating (rice (Oryza saliva) [14]; Flooded Paddy, Rate 250 g/ha) | further results
1 | CC(C)c1ccn(C2OCN(c3cccc(C(F)(F)F)c3)C2=O)n1 (stereo not shown) [Compound 27] | 90 | 50 | 100 | 100 | 70 | 80 | 20 | 60 | 20 | 80 | 50 | 90 | 0 | 20 | 0 | 20 | 60 | 20 | 60 | 40 | Plant response rating (0 to 100), Nightshade (Nightshade): 0; Plant response rating, Sunflower (Sunflower [9]): 20; Plant response rating, Sunflower (Sunflower [12]): 0; Barnyardgrass plant response rating ([13]; Flooded Paddy, Rate 500 g/ha): 70; Rice plant response rating (rice (Oryza saliva) [14]; Flooded Paddy, Rate 500 g/ha): 70; Plant response rating, Rice (rice (Oryza saliva) [14]; [17]): 0; Plant response rating, Rice (rice (Oryza saliva) [14]; [18]): 40; Ducksalad plant response rating ([15]; Flooded Paddy, Rate 250 g/ha): 0; Ducksalad plant response rating ([15]; Flooded Paddy, Rate 500 g/ha): 90; Plant response rating, Ducksalad [15, 17]: 0; Plant response rating, Ducksalad [15, 18]: 0; Flatsedge plant response rating ([16]; Rate 250 g/ha): 100; Flatsedge plant response rating ([16]; Rate 500 g/ha): 100; Plant response rating, Flatsedge [16, 19]: 90; Plant response rating, Flatsedge [16, 20]: 90
2 | O=C1C(n2ccc(C3CC3)n2)OCN1c1cccc(C(F)(F)F)c1 (stereo not shown) [Compound 28] | 100 | 50 | 100 | 100 | 60 | 60 | 20 | 40 | 20 | 80 | 80 | 90 | 0 | 50 | 10 | 20 | 40 | 0 | 0 | 20 | Plant response rating (0 to 100), Nightshade (Nightshade): 90; Plant response rating, Sunflower (Sunflower [9]): 40; Plant response rating, Sunflower (Sunflower [12]): 0; Barnyardgrass plant response rating ([13]; Flooded Paddy, Rate 500 g/ha): 70; Rice plant response rating (rice (Oryza saliva) [14]; Flooded Paddy, Rate 500 g/ha): 20; Plant response rating, Rice (rice (Oryza saliva) [14]; [17]): 0; Plant response rating, Rice (rice (Oryza saliva) [14]; [18]): 20; Ducksalad plant response rating ([15]; Flooded Paddy, Rate 250 g/ha): 70; Ducksalad plant response rating ([15]; Flooded Paddy, Rate 500 g/ha): 100; Plant response rating, Ducksalad [15, 17]: 0; Plant response rating, Ducksalad [15, 18]: 0; Flatsedge plant response rating ([16]; Rate 250 g/ha): 100; Flatsedge plant response rating ([16]; Rate 500 g/ha): 100; Plant response rating, Flatsedge [16, 19]: 80; Plant response rating, Flatsedge [16, 20]: 80
3 | CC1(C)CCc2cn(C3CCN(c4cccc(C(F)(F)F)c4)C3=O)nc21 (stereo not shown) [Compound 10] | 100 | 60 | 100 | 100 | 20 | 10 | 10 | 10 | 20 | 100 | 10 | 10 | 0 | 50 | 10 | 20 | 40 | 0 | 0 | 10 | Plant response rating, Barnyardgrass [13, 21]: 80; Plant response rating (scale 0 to 100), Barnyardgrass [13, 22]: 0; Plant response rating, Rice (rice (Oryza saliva) [14]; [21]): 60; Plant response rating, Rice (rice (Oryza saliva) [14]; [17]): 0; Plant response rating, Rice (rice (Oryza saliva) [14]; [18]): 0; Plant response rating (scale 0 to 100), Rice (rice (Oryza saliva) [14]; [22]): 0; Plant response rating, Ducksalad [15, 21]: 90; Ducksalad plant response rating ([15]; Flooded Paddy, Rate 250 g/ha): 90; Plant response rating, Ducksalad [15, 17]: 0; Plant response rating, Ducksalad [15, 18]: 20; Plant response rating (scale 0 to 100), Ducksalad [15, 22]: 0; Flatsedge plant response rating ([16]; Rate 250 g/ha): 100; Flatsedge plant response rating ([16]; Rate 500 g/ha): 100; Plant response rating, Flatsedge [16, 19]: 50; Plant response rating, Flatsedge [16, 20]: 80; Plant response rating (scale 0 to 100), Flatsedge [16, 22]: 30
